In the NIST ThermoML archive (doi:10.1021/je2003012):
Where “and” joins values, the source holds several entries; their conditions need not be identical. Equal values may be shown once.

Test: relative permittivity at various frequencies (dimensionless); wn = mass fraction of the nth substance listed
Settings: Liquid, direct capacitance:P =

O=C=O [carbon dioxide] + CCO
Settings | relative permittivity
322.4 K, 11900 kPa, w2 = 0.1 | 1.94
322.4 K, 12200 kPa, w2 = 0.1 | 1.96
322.4 K, 13700 kPa, w2 = 0.1 | 2.01
322.4 K, 13900 kPa, w2 = 0.1 | 2.02
322.4 K, 15700 kPa, w2 = 0.1 | 2.06
322.4 K, 15800 kPa, w2 = 0.1 | 2.07
322.4 K, 16700 kPa, w2 = 0.1 | 2.09
322.4 K, 17100 kPa, w2 = 0.1 | 2.09
322.4 K, 17600 kPa, w2 = 0.1 | 2.11
322.4 K, 18600 kPa, w2 = 0.1 | 2.13
322.4 K, 19600 kPa, w2 = 0.1 | 2.14
322.4 K, 20600 kPa, w2 = 0.1 | 2.16
322.4 K, 21600 kPa, w2 = 0.1 | 2.18
322.4 K, 21700 kPa, w2 = 0.1 | 2.18
322.4 K, 22600 kPa, w2 = 0.1 | 2.19
322.4 K, 23600 kPa, w2 = 0.1 | 2.21
322.4 K, 24500 kPa, w2 = 0.1 | 2.22
322.4 K, 25500 kPa, w2 = 0.1 | 2.23
322.4 K, 26500 kPa, w2 = 0.1 | 2.24
322.4 K, 27500 kPa, w2 = 0.1 | 2.26
322.4 K, 28400 kPa, w2 = 0.1 | 2.27
322.4 K, 29900 kPa, w2 = 0.1 | 2.28
322.5 K, 10200 kPa, w2 = 0.05 | 1.53
322.5 K, 12100 kPa, w2 = 0.05 | 1.63
322.5 K, 13100 kPa, w2 = 0.05 | 1.66
322.5 K, 14200 kPa, w2 = 0.05 | 1.7
322.5 K, 14700 kPa, w2 = 0.05 | 1.7
322.5 K, 16000 kPa, w2 = 0.05 | 1.73
322.5 K, 16100 kPa, w2 = 0.05 | 1.73
322.5 K, 17200 kPa, w2 = 0.05 | 1.75
322.5 K, 18900 kPa, w2 = 0.05 | 1.78
322.5 K, 19500 kPa, w2 = 0.05 | 1.79
322.5 K, 20800 kPa, w2 = 0.05 | 1.8
322.5 K, 21800 kPa, w2 = 0.05 | 1.81
322.5 K, 22700 kPa, w2 = 0.05 | 1.82
322.5 K, 23600 kPa, w2 = 0.05 | 1.83
322.5 K, 24700 kPa, w2 = 0.05 | 1.84
322.5 K, 25800 kPa, w2 = 0.05 | 1.85
322.5 K, 26300 kPa, w2 = 0.05 | 1.86
322.5 K, 27900 kPa, w2 = 0.05 | 1.87
322.5 K, 28400 kPa, w2 = 0.05 | 1.87
322.5 K, 29300 kPa, w2 = 0.05 | 1.88
322.5 K, 29500 kPa, w2 = 0.05 | 1.88
322.5 K, 30300 kPa, w2 = 0.05 | 1.89
323.3 K, 9900 kPa, w2 = 0.152 | 2.06
323.3 K, 11000 kPa, w2 = 0.152 | 2.13
323.3 K, 12000 kPa, w2 = 0.152 | 2.18
323.3 K, 12700 kPa, w2 = 0.152 | 2.21
323.3 K, 13600 kPa, w2 = 0.152 | 2.25
323.3 K, 14700 kPa, w2 = 0.152 | 2.28
323.3 K, 15900 kPa, w2 = 0.152 | 2.31
323.3 K, 16900 kPa, w2 = 0.152 | 2.34
323.3 K, 17800 kPa, w2 = 0.152 | 2.36
323.3 K, 18600 kPa, w2 = 0.152 | 2.37
323.3 K, 18700 kPa, w2 = 0.152 | 2.38
323.3 K, 19500 kPa, w2 = 0.152 | 2.4
323.3 K, 20300 kPa, w2 = 0.152 | 2.41
323.3 K, 21700 kPa, w2 = 0.152 | 2.44
323.3 K, 22800 kPa, w2 = 0.152 | 2.45
323.3 K, 23100 kPa, w2 = 0.152 | 2.46
323.3 K, 23500 kPa, w2 = 0.152 | 2.47
323.3 K, 24500 kPa, w2 = 0.152 | 2.48
323.3 K, 25400 kPa, w2 = 0.152 | 2.5
323.3 K, 26500 kPa, w2 = 0.152 | 2.51
323.3 K, 28400 kPa, w2 = 0.152 | 2.54
323.3 K, 29500 kPa, w2 = 0.152 | 2.56
323.4 K, 9800 kPa, w2 = 0.212 | 2.59
323.4 K, 10600 kPa, w2 = 0.212 | 2.61
323.4 K, 11500 kPa, w2 = 0.212 | 2.67
323.4 K, 12400 kPa, w2 = 0.212 | 2.71
323.4 K, 13100 kPa, w2 = 0.212 | 2.75
323.4 K, 14100 kPa, w2 = 0.212 | 2.79
323.4 K, 15800 kPa, w2 = 0.212 | 2.85
323.4 K, 16600 kPa, w2 = 0.212 | 2.87
323.4 K, 17800 kPa, w2 = 0.212 | 2.9
323.4 K, 18800 kPa, w2 = 0.212 | 2.93
323.4 K, 19600 kPa, w2 = 0.212 | 2.95
323.4 K, 19700 kPa, w2 = 0.212 | 2.95
323.4 K, 21100 kPa, w2 = 0.212 | 2.98
323.4 K, 22900 kPa, w2 = 0.212 | 3.03
323.4 K, 23100 kPa, w2 = 0.212 | 3.03
323.4 K, 23200 kPa, w2 = 0.212 | 3.03
323.4 K, 24700 kPa, w2 = 0.212 | 3.06
323.4 K, 26000 kPa, w2 = 0.212 | 3.08
323.4 K, 26700 kPa, w2 = 0.212 | 3.1
323.4 K, 27900 kPa, w2 = 0.212 | 3.12
323.4 K, 29500 kPa, w2 = 0.212 | 3.14
323.4 K, 30600 kPa, w2 = 0.212 | 3.15
333.2 K, 10500 kPa, w2 = 0.05 | 1.32
333.2 K, 11200 kPa, w2 = 0.05 | 1.41
333.2 K, 11900 kPa, w2 = 0.212 | 2.38
333.2 K, 12100 kPa, w2 = 0.05 | 1.48
333.2 K, 12900 kPa, w2 = 0.212 | 2.45
333.2 K, 13000 kPa, w2 = 0.05 | 1.54 and 1.53
333.2 K, 13200 kPa, w2 = 0.212 | 2.47
333.2 K, 13700 kPa, w2 = 0.05 | 1.57
333.2 K, 14100 kPa, w2 = 0.212 | 2.52
333.2 K, 14700 kPa, w2 = 0.212 | 2.54
333.2 K, 14900 kPa, w2 = 0.05 | 1.62
333.2 K, 15800 kPa, w2 = 0.212 | 2.59
333.2 K, 15900 kPa, w2 = 0.05 | 1.64
333.2 K, 16200 kPa, w2 = 0.212 | 2.61
333.2 K, 16900 kPa, w2 = 0.212 | 2.62
333.2 K, 17000 kPa, w2 = 0.05 | 1.67
333.2 K, 17300 kPa, w2 = 0.212 | 2.64
333.2 K, 17600 kPa, w2 = 0.05 | 1.69
333.2 K, 18500 kPa, w2 = 0.212 | 2.68
333.2 K, 19100 kPa, w2 = 0.05 | 1.72
333.2 K, 19100 kPa, w2 = 0.212 | 2.7
333.2 K, 19200 kPa, w2 = 0.212 | 2.7
333.2 K, 19400 kPa, w2 = 0.05 | 1.72
333.2 K, 21000 kPa, w2 = 0.05 | 1.75
333.2 K, 21200 kPa, w2 = 0.212 | 2.75
333.2 K, 21300 kPa, w2 = 0.212 | 2.75
333.2 K, 21600 kPa, w2 = 0.05 | 1.75
333.2 K, 22900 kPa, w2 = 0.05 | 1.77
333.2 K, 23000 kPa, w2 = 0.212 | 2.79
333.2 K, 23100 kPa, w2 = 0.212 | 2.79
333.2 K, 23700 kPa, w2 = 0.05 | 1.78
333.2 K, 24900 kPa, w2 = 0.212 | 2.83
333.2 K, 25000 kPa, w2 = 0.05 | 1.8
333.2 K, 25000 kPa, w2 = 0.212 | 2.83
333.2 K, 25200 kPa, w2 = 0.212 | 2.83
333.2 K, 25500 kPa, w2 = 0.212 | 2.85
333.2 K, 26800 kPa, w2 = 0.212 | 2.86
333.2 K, 26900 kPa, w2 = 0.05 | 1.82
333.2 K, 27000 kPa, w2 = 0.212 | 2.87
333.2 K, 27400 kPa, w2 = 0.05 | 1.82
333.2 K, 28400 kPa, w2 = 0.212 | 2.9
333.2 K, 28800 kPa, w2 = 0.05 | 1.83
333.2 K, 29900 kPa, w2 = 0.05 | 1.84
333.2 K, 30600 kPa, w2 = 0.212 | 2.94
333.3 K, 11800 kPa, w2 = 0.152 | 1.99
333.3 K, 11900 kPa, w2 = 0.1 | 1.74
333.3 K, 12900 kPa, w2 = 0.1 | 1.81
333.3 K, 12900 kPa, w2 = 0.152 | 2.07
333.3 K, 13700 kPa, w2 = 0.1 | 1.86
333.3 K, 13800 kPa, w2 = 0.152 | 2.11
333.3 K, 14800 kPa, w2 = 0.1 | 1.9
333.3 K, 14800 kPa, w2 = 0.152 | 2.16
333.3 K, 15700 kPa, w2 = 0.1 | 1.94
333.3 K, 15900 kPa, w2 = 0.152 | 2.2
333.3 K, 16700 kPa, w2 = 0.1 | 1.96
333.3 K, 16700 kPa, w2 = 0.152 | 2.22
333.3 K, 17700 kPa, w2 = 0.152 | 2.26
333.3 K, 17800 kPa, w2 = 0.1 | 2
333.3 K, 18500 kPa, w2 = 0.1 | 2.01
333.3 K, 18700 kPa, w2 = 0.152 | 2.28
333.3 K, 19400 kPa, w2 = 0.1 | 2.03
333.3 K, 19600 kPa, w2 = 0.1 | 2.03
333.3 K, 19700 kPa, w2 = 0.152 | 2.31
333.3 K, 20600 kPa, w2 = 0.1 | 2.06
333.3 K, 20800 kPa, w2 = 0.152 | 2.33
333.3 K, 21700 kPa, w2 = 0.1 | 2.08
333.3 K, 22000 kPa, w2 = 0.152 | 2.36
333.3 K, 22600 kPa, w2 = 0.1 | 2.09
333.3 K, 22700 kPa, w2 = 0.152 | 2.37
333.3 K, 23500 kPa, w2 = 0.152 | 2.38
333.3 K, 23900 kPa, w2 = 0.1 | 2.11
333.3 K, 24500 kPa, w2 = 0.152 | 2.4
333.3 K, 24800 kPa, w2 = 0.1 | 2.12
333.3 K, 25200 kPa, w2 = 0.1 | 2.13
333.3 K, 25600 kPa, w2 = 0.1 | 2.14 and 2.13
333.3 K, 25600 kPa, w2 = 0.152 | 2.42
333.3 K, 26500 kPa, w2 = 0.1 | 2.15
333.3 K, 26600 kPa, w2 = 0.1 | 2.15
333.3 K, 26600 kPa, w2 = 0.152 | 2.43
333.3 K, 27200 kPa, w2 = 0.1 | 2.16
333.3 K, 27500 kPa, w2 = 0.1 | 2.16
333.3 K, 27600 kPa, w2 = 0.152 | 2.45
333.3 K, 27900 kPa, w2 = 0.1 | 2.16
333.3 K, 28400 kPa, w2 = 0.152 | 2.46
333.3 K, 28500 kPa, w2 = 0.1 | 2.17
333.3 K, 29200 kPa, w2 = 0.1 | 2.18
333.3 K, 29200 kPa, w2 = 0.152 | 2.47
333.3 K, 29900 kPa, w2 = 0.152 | 2.48
